Test results as given in PMC8016166, “Identification of a Potent and Selective 5-HT1A Receptor Agonist with In Vitro and In Vivo Antinociceptive Activity” (ACS Chemical Neuroscience, 2020).

Test system: Male Swiss CB1 mice
Assay: Formalin test
Format: in vivo, mouse
Description: Male Swiss CB1 mice (Envigo, S. Pietro al Natisone (UD)) weighing 25–30 g were used. The animals were kept at a constant room temperature (25 ± 1 °C) under a 12:12 h light and dark cycle, with free access to food and water. Each mouse was used for only one experiment. […] All the tests were performed blind to treatment.
The formalin (5%, 10 μL; Sigma-Aldrich) was injected subcutaneously into the plantar side of the right hind paw.[68] After injection, the mice were immediately placed in a plexiglas box: the total time (in seconds) spent on licking or biting the injected hind paw was recorded every 5 min at selected intervals, 0–10 (phase I) and 10–60 (phase II) min, in the different experimental groups, as an indicator of nociceptive behavior. […] A mean response was then calculated for each phase. […] A vehicle solution containing 10% DMSO was given as a control. Morphine was used as positive control. The test compound and vehicle were […] (i.p.) administered (5 mL/kg) 15 min before the formalin. […] The data are expressed as mean values (SEM). Analyses of variance (two-way repeated measures ANOVA followed by post hoc Bonferroni test) were performed to assess significance using the Instat 3.0 software (GraphPad Software, San Diego, CA). p < 0.05 was considered significant.

SMILES: c1ccc(C2(c3ccccc3)OCC(CNCCOc3ccccc3-c3ccncc3)O2)cc1 (racemic) [rac-1, N-[(2,2-diphenyl-1,3-dioxolan-4-yl)methyl]-2-[2-(pyridin-4-yl)phenoxy]ethan-1-ammonium hydrogenoxalate]
- analgesic effect in first and second phases of the formalin test (10 mg/kg i.p., formalin 5% 10 μL intraplantar): significant analgesic effects
- analgesic effect after pretreatment with WAY-100635 (1 10 mg/kg i.p., WAY-100635 3 mg/kg i.p. 30 min before, second phase): prevented its analgesic effect
